From patent US20070129433A1, “Diphenylamine derivatives” (priority 2003, published 2007) come the findings set out here.

As usually defined, the IC50 is the concentration at which inhibition is half-maximal.

One test concerns Human LDL. Description: Antioxidant effect: inhibition of copper-induced oxidation of human LDL (fluorescence). It counts as biochemical. The note with it: human LDL 120 μg/ml + CuCl2, 37° C., fluorescence difference between 2 h and 24 h readings; from three concentrations. How it is done:
Human LDLs placed in aqueous solution in the presence of cupric ions, become spontaneously oxidized on their protein component, apolipoprotein-B. This oxidation makes the particle fluorescent, which is exploited to measure a pharmacological effect.
The reactions and measurements are performed in black 96-well plates. 10 μl of a solution of the test product dissolved in dimethyl sulfoxide are first mixed with 170 μl of a solution of human LDL at a concentration of 120 μg/ml and 20 μl of 100 μM CuCl2. After stirring, the mixture is incubated for 2 hours at 37° C., and a first fluorescence reading is taken (excitation at 360 nm, reading at 460 nm). The mixture is then incubated for a further 22 hours, to take a second reading under the same conditions. The difference is proportionately smaller the greater the anti-oxidant power of the test product. Probucol is used as reference product at a concentration of 10 μM.
The concentrations that inhibit 50% (IC50) of the oxidation are prepared from three concentrations of the test product. They are given in Table I below for some of the compounds given as examples below.

The test system of a further test is fatty Zucker rats. The experiment in a line: Hypotriglyceridaemiant activity in fatty Zucker rats. Type of test: in vivo, rat. The note with it: 9-week-old male Zucker rats, 300 mg/kg/day p.o. for eight days, plasma after fasting four hours. The protocol: The compound of Example 2 was tested on fatty Zucker rats (Zucker L. M. et al., 1961, Fatty a new mutation in the rat, J. Hered., 52: 275278). This animal is hyperphagic, obese and hyperinsulinaemic. It develops resistance to insulin, it is hyperlipidaemic, and has a large hypertriglyceridaemia. 9-week-old male Zucker rats were treated for eight days with this compound at a dose of 300 mg/kg/day p.o. After fasting for four hours, a blood sample is taken to recover the plasma. Under these conditions, the compound of Example 2 induces a large reduction in triglycerides, of 55% (p<0.01), and the insulinaemia is down by 59% (p<0.05).

Consider `COc1ccc(Nc2ccc(CC(=O)O)cc2)cc1` [Example 17], for which, in the test on Human LDL, the IC50 was 11.1 µM. Same read-out and setting: as for `COc1ccc(Nc2ccc(CO)cc2)cc1` [Example 8, {4-[(4-Methoxyphenyl)amino]phenyl}methanol], the figure is 5.8 µM; as for `COc1ccc(Nc2ccc(C(N)=O)cc2)cc1` [Example 42], 18.6 µM. Turning to `COc1ccc(Nc2ccc(C(=O)O)cc2)cc1` [Example 2, 4-[(4-Methoxyphenyl)amino]benzoic acid], the IC50 in the test on Human LDL turned out to be 10.6 µM. The same compound gave a reduction in triglycerides in the test on fatty Zucker rats (p<0.01) of 55%. The “insulinaemia down by” value in the test with fatty Zucker rats (p<0.05) is given as 59%.

In the case of `O=C(O)c1ccc(Nc2ccc([N+](=O)[O-])cc2)cc1` [Example 13], the IC50 in the test on Human LDL was found to be 9.7 µM.

Regarding `COc1ccc(Nc2ccc(C#N)cc2)cc1` [Example 6, 4-[(4-Methoxyphenyl)amino]benzonitrile], the IC50 in the test with Human LDL is 8.5 µM.
